This passage reports MIC80 results from ChEMBL document CHEMBL6092162, “Identification of novel and potent triazoles targeting CYP51 for antifungal: Design, synthesis, and biological study” (Eur J Med Chem, 2024).

Molecules are shown by their SMILES. In brackets after ≈: the same amount, converted by molar mass.

In the first test the test system is Candida parapsilosis. Nature of the test: Antifungal activity against Candida parapsilosis GIM 2.190 assessed as inhibition of fungal growth by CLSI M27-A3 guidelines based method. Format: functional. The following applies: Lodderomyces parapsilosis.
Regarding `CN(Cc1ccc(N2CCN(Cc3ccccc3I)CC2)cc1)CC(O)(Cn1cncn1)c1ccc(F)cc1F` (centres undefined), the MIC80 is 0.025 µg/mL (≈ 0.038 µM).
Regarding `CN(Cc1ccc(N2CCN(Cc3ccccc3Cl)CC2)cc1)CC(O)(Cn1cncn1)c1ccc(F)cc1F` (centres undefined), the MIC80 was 0.006 µg/mL (≈ 0.0106 µM).
For the molecule `CN(Cc1ccc(N2CCN(Cc3c(Cl)cccc3Br)CC2)cc1)CC(O)(Cn1cncn1)c1ccc(F)cc1F` (centres undefined), the MIC80 was 0.006 µg/mL (≈ 0.00929 µM).
Take `CCC(=O)N1CCN(c2ccc(CN(C)CC(O)(Cn3cncn3)c3ccc(F)cc3F)cc2)CC1` (centres undefined): the MIC80 was 0.1 µg/mL (≈ 0.201 µM).
Regarding `CC(C)c1ccc(CN2CCN(c3ccc(CN(C)CC(O)(Cn4cncn4)c4ccc(F)cc4F)cc3)CC2)cc1` (centres undefined), the MIC80 is 0.013 µg/mL (≈ 0.0226 µM).
On the same count and under the same terms, the same measure for `CN(Cc1ccc(N2CCN(Cc3c(Br)cccc3Br)CC2)cc1)CC(O)(Cn1cncn1)c1ccc(F)cc1F` (centres undefined): 0.006 µg/mL (≈ 0.00869 µM); for `CN(Cc1ccc(N2CCN(Cc3cccc(I)c3)CC2)cc1)CC(O)(Cn1cncn1)c1ccc(F)cc1F` (centres undefined): 0.025 µg/mL (≈ 0.038 µM).

Another test deals with Candida albicans. Nature of the test: Antifungal activity against Candida albicans GIM 2.194 assessed as inhibition of fungal growth by CLSI M27-A3 guidelines based method. Format: functional.
Details: not given
For the molecule `CN(Cc1ccc(N2CCN(Cc3ccccc3I)CC2)cc1)CC(O)(Cn1cncn1)c1ccc(F)cc1F` (centres undefined), the MIC80 was determined as 0.013 µg/mL (≈ 0.0197 µM).
In the case of `CN(Cc1ccc(N2CCN(Cc3ccccc3Cl)CC2)cc1)CC(O)(Cn1cncn1)c1ccc(F)cc1F` (centres undefined), the MIC80 is 0.006 µg/mL (≈ 0.0106 µM).
Same read-out and setting: the same measure for `CN(Cc1ccc(N2CCN(Cc3c(Cl)cccc3Br)CC2)cc1)CC(O)(Cn1cncn1)c1ccc(F)cc1F` (centres undefined): 0.025 µg/mL (≈ 0.0387 µM); for `CCC(=O)N1CCN(c2ccc(CN(C)CC(O)(Cn3cncn3)c3ccc(F)cc3F)cc2)CC1` (centres undefined): 0.5 µg/mL (≈ 1 µM).
Regarding `CC(C)c1ccc(CN2CCN(c3ccc(CN(C)CC(O)(Cn4cncn4)c4ccc(F)cc4F)cc3)CC2)cc1` (centres undefined), the MIC80 was found to be 0.013 µg/mL (≈ 0.0226 µM).
With `CN(Cc1ccc(N2CCN(Cc3c(Br)cccc3Br)CC2)cc1)CC(O)(Cn1cncn1)c1ccc(F)cc1F` (centres undefined), the MIC80 worked out at 0.006 µg/mL (≈ 0.00869 µM).
Take `CN(Cc1ccc(N2CCN(Cc3cccc(I)c3)CC2)cc1)CC(O)(Cn1cncn1)c1ccc(F)cc1F` (centres undefined): the MIC80 came out at 0.025 µg/mL (≈ 0.038 µM).

Another test concerns Candida albicans. Nature of the test: Antifungal activity against Candida albicans SC5314 assessed as inhibition of fungal growth by CLSI M27-A3 guidelines based method.
Details: not given
Format: functional.
As for `CN(Cc1ccc(N2CCN(Cc3ccccc3I)CC2)cc1)CC(O)(Cn1cncn1)c1ccc(F)cc1F` (centres undefined), the MIC80 turned out to be 0.013 µg/mL (≈ 0.0197 µM).
Same read-out and setting: the same measure for `CN(Cc1ccc(N2CCN(Cc3ccccc3Cl)CC2)cc1)CC(O)(Cn1cncn1)c1ccc(F)cc1F` (centres undefined): 0.025 µg/mL (≈ 0.0441 µM); for `CN(Cc1ccc(N2CCN(Cc3c(Cl)cccc3Br)CC2)cc1)CC(O)(Cn1cncn1)c1ccc(F)cc1F` (centres undefined): 0.013 µg/mL (≈ 0.0201 µM); for `CCC(=O)N1CCN(c2ccc(CN(C)CC(O)(Cn3cncn3)c3ccc(F)cc3F)cc2)CC1` (centres undefined): 0.25 µg/mL (≈ 0.501 µM).
For the molecule `CC(C)c1ccc(CN2CCN(c3ccc(CN(C)CC(O)(Cn4cncn4)c4ccc(F)cc4F)cc3)CC2)cc1` (centres undefined), the MIC80 amounted to 0.013 µg/mL (≈ 0.0226 µM).
As to `CN(Cc1ccc(N2CCN(Cc3c(Br)cccc3Br)CC2)cc1)CC(O)(Cn1cncn1)c1ccc(F)cc1F` (centres undefined), the MIC80 came out at 0.013 µg/mL (≈ 0.0188 µM).
As for `CN(Cc1ccc(N2CCN(Cc3cccc(I)c3)CC2)cc1)CC(O)(Cn1cncn1)c1ccc(F)cc1F` (centres undefined), the MIC80 stood at 0.25 µg/mL (≈ 0.38 µM).

In a further test the test system is Pichia kudriavzevii. Nature of the test: Antifungal activity against Candida krusei GIM 2.1 assessed as inhibition of fungal growth by CLSI M27-A3 guidelines based method. The class given is functional.
Details: not given
Consider `CN(Cc1ccc(N2CCN(Cc3ccccc3I)CC2)cc1)CC(O)(Cn1cncn1)c1ccc(F)cc1F` (centres undefined), for which the MIC80 was found to be 0.1 µg/mL (≈ 0.152 µM).
Regarding `CN(Cc1ccc(N2CCN(Cc3ccccc3Cl)CC2)cc1)CC(O)(Cn1cncn1)c1ccc(F)cc1F` (centres undefined), the MIC80 came to 0.1 µg/mL (≈ 0.176 µM).
As to `CN(Cc1ccc(N2CCN(Cc3c(Cl)cccc3Br)CC2)cc1)CC(O)(Cn1cncn1)c1ccc(F)cc1F` (centres undefined), the MIC80 came out at 0.1 µg/mL (≈ 0.155 µM).
With `CCC(=O)N1CCN(c2ccc(CN(C)CC(O)(Cn3cncn3)c3ccc(F)cc3F)cc2)CC1` (centres undefined), the MIC80 amounted to 16 µg/mL (≈ 32.1 µM).
Still for that read-out and setting: the same measure for `CN(Cc1ccc(N2CCN(Cc3c(Br)cccc3Br)CC2)cc1)CC(O)(Cn1cncn1)c1ccc(F)cc1F` (centres undefined): 0.1 µg/mL (≈ 0.145 µM); for `CN(Cc1ccc(N2CCN(Cc3cccc(I)c3)CC2)cc1)CC(O)(Cn1cncn1)c1ccc(F)cc1F` (centres undefined): 0.2 µg/mL (≈ 0.304 µM).

The subject of a further test is Nakaseomyces glabratus. Nature of the test: Antifungal activity against Candida glabrata assessed as inhibition of fungal growth by CLSI M27-A3 guidelines based method. Format: functional.
Details: not given
As to `CN(Cc1ccc(N2CCN(Cc3ccccc3I)CC2)cc1)CC(O)(Cn1cncn1)c1ccc(F)cc1F` (centres undefined), the MIC80 was found to be 0.2 µg/mL (≈ 0.304 µM).
Turning to `CN(Cc1ccc(N2CCN(Cc3ccccc3Cl)CC2)cc1)CC(O)(Cn1cncn1)c1ccc(F)cc1F` (centres undefined), the MIC80 was found to be 0.2 µg/mL (≈ 0.353 µM).
As for `CN(Cc1ccc(N2CCN(Cc3c(Cl)cccc3Br)CC2)cc1)CC(O)(Cn1cncn1)c1ccc(F)cc1F` (centres undefined), the MIC80 was found to be 0.2 µg/mL (≈ 0.31 µM).
`CCC(=O)N1CCN(c2ccc(CN(C)CC(O)(Cn3cncn3)c3ccc(F)cc3F)cc2)CC1` (centres undefined): the MIC80 was determined as 16 µg/mL (≈ 32.1 µM).
In the case of `CC(C)c1ccc(CN2CCN(c3ccc(CN(C)CC(O)(Cn4cncn4)c4ccc(F)cc4F)cc3)CC2)cc1` (centres undefined), the MIC80 came to 0.4 µg/mL (≈ 0.696 µM).
For `CN(Cc1ccc(N2CCN(Cc3c(Br)cccc3Br)CC2)cc1)CC(O)(Cn1cncn1)c1ccc(F)cc1F` (centres undefined), the MIC80 turned out to be 0.1 µg/mL (≈ 0.145 µM).
On to `CN(Cc1ccc(N2CCN(Cc3cccc(I)c3)CC2)cc1)CC(O)(Cn1cncn1)c1ccc(F)cc1F` (centres undefined), for which the MIC80 turned out to be 0.4 µg/mL (≈ 0.607 µM).

The subject of a further test is Cryptococcus neoformans. Nature of the test: Antifungal activity against Cryptococcus neoformans CGMCC 2.3161 assessed as inhibition of fungal growth by CLSI M27-A3 guidelines based method. Format: functional.
Details: not given
Take `CN(Cc1ccc(N2CCN(Cc3ccccc3Cl)CC2)cc1)CC(O)(Cn1cncn1)c1ccc(F)cc1F` (centres undefined): the MIC80 came out at 0.1 µg/mL (≈ 0.176 µM).
Turning to `CCC(=O)N1CCN(c2ccc(CN(C)CC(O)(Cn3cncn3)c3ccc(F)cc3F)cc2)CC1` (centres undefined), the MIC80 turned out to be 8 µg/mL (≈ 16 µM).
For `CC(C)c1ccc(CN2CCN(c3ccc(CN(C)CC(O)(Cn4cncn4)c4ccc(F)cc4F)cc3)CC2)cc1` (centres undefined), the MIC80 is 0.1 µg/mL (≈ 0.174 µM).

Another test concerns Candida tropicalis. Nature of the test: Antifungal activity against Candida tropicalis GIM 2.183 assessed as inhibition of fungal growth by CLSI M27-A3 guidelines based method.
Details: not given
Format: functional.
Consider `CN(Cc1ccc(N2CCN(Cc3ccccc3I)CC2)cc1)CC(O)(Cn1cncn1)c1ccc(F)cc1F` (centres undefined), for which the MIC80 amounted to 0.013 µg/mL (≈ 0.0197 µM).
`CN(Cc1ccc(N2CCN(Cc3ccccc3Cl)CC2)cc1)CC(O)(Cn1cncn1)c1ccc(F)cc1F` (centres undefined): the MIC80 came to 0.013 µg/mL (≈ 0.0229 µM).
As for `CN(Cc1ccc(N2CCN(Cc3c(Cl)cccc3Br)CC2)cc1)CC(O)(Cn1cncn1)c1ccc(F)cc1F` (centres undefined), the MIC80 was determined as 0.006 µg/mL (≈ 0.00929 µM).
On the same count and under the same terms, the same measure for `CCC(=O)N1CCN(c2ccc(CN(C)CC(O)(Cn3cncn3)c3ccc(F)cc3F)cc2)CC1` (centres undefined): 0.5 µg/mL (≈ 1 µM).
Regarding `CC(C)c1ccc(CN2CCN(c3ccc(CN(C)CC(O)(Cn4cncn4)c4ccc(F)cc4F)cc3)CC2)cc1` (centres undefined), the MIC80 came out at 0.25 µg/mL (≈ 0.435 µM).
Consider `CN(Cc1ccc(N2CCN(Cc3c(Br)cccc3Br)CC2)cc1)CC(O)(Cn1cncn1)c1ccc(F)cc1F` (centres undefined), for which the MIC80 was found to be 0.006 µg/mL (≈ 0.00869 µM).
Regarding `CN(Cc1ccc(N2CCN(Cc3cccc(I)c3)CC2)cc1)CC(O)(Cn1cncn1)c1ccc(F)cc1F` (centres undefined), the MIC80 was 0.013 µg/mL (≈ 0.0197 µM).
